Source: article PMC11995724, “Antibiotic target discovery by integrated phenotypic and activity-based profiling of electrophilic fragments” (Cell chemical biology, 2025)

test: in vitro; conditions: human, hek293t cells
Description: Mammalian cytotoxicity measurement was performed using Cell Titer-Glo 2.0 Cell Viability Assay (Promega, G9243) according to the manufacturer protocol. In brief, mammalian cells were seeded into 384-well white plates (Greiner, 781080) and incubated at 37°C for one day. Compounds from the Cys-Library were dispensed into the assay plate using epMotion 96. The plates were then incubated at 37°C for two days. An equal volume of Cell Titer-Glo 2.0 reagent was added into each well of the assay plate using epMotion 96 and incubated at 22°C for 10 min, followed by luminescence measurement using a Cytation 5 plate reader (BioTek).

For `CC(C)N1C(=O)C[C@H](NC(=O)CCl)[C@H]1c1ccc(Cl)c(F)c1` (racemic) [5-I11, rac-2-chloro-N-[(2R,3S)-2-(4-chloro-3-fluorophenyl)-5-oxo-1-(propan-2-yl)pyrrolidin-3-yl]acetamide], which viability at 48 h, 25 µM is on record?
Its viability at 48 h, 25 µM is 0.807%.

For `CC(Cl)C(=O)N[C@H]1CCC(=O)N[C@@H]1c1ccnn1C` (mixture of isomers) [6-B14, rac-2-chloro-N-[(2R,3R)-2-(1-methyl-1H-pyrazol-5-yl)-6-oxopiperidin-3-yl]propanamide], which viability at 48 h, 25 µM is on record?
Its viability at 48 h, 25 µM is 92.4%.

For `CCN1C(=O)CC[C@H](CNC(=O)C(C)Cl)[C@H]1c1cnn(C)c1` (mixture of isomers) [6-L13, rac-2-chloro-N-{[(2R,3S)-1-ethyl-2-(1-methyl-1H-pyrazol-4-yl)-6-oxopiperidin-3-yl]methyl}propanamide], which viability at 48 h, 25 µM is on record?
Its viability at 48 h, 25 µM is 100%.

With `CC(Cl)C(=O)NC[C@H]1CCCN(C2CC2)[C@@H]1c1ccnn1C` (mixture of isomers) [6-P20, rac-2-chloro-N-{[(2R,3S)-1-cyclopropyl-2-(1-methyl-1H-pyrazol-5-yl)piperidin-3-yl]methyl}propanamide] as the compound, how does the viability at 48 h, 25 µM read?
Its viability at 48 h, 25 µM is 101%.

Which viability at 48 h, 25 µM does the source give for `CC(Cl)C(=O)N[C@H]1CCO[C@@H]1c1nccn1-c1ccccc1` (mixture of isomers) [7-A12, rac-2-chloro-N-[(2R,3R)-2-(1-phenyl-1H-imidazol-2-yl)oxolan-3-yl]propanamide] here?
Its viability at 48 h, 25 µM is 93.1%.

Which viability at 48 h, 25 µM does the source give for `CC(Cl)C(=O)N1C[C@@H]2CCC[C@@]2(c2nc(-c3cnccn3)no2)C1` (mixture of isomers) [7-C03, rac-1-[(3aR,6aR)-3a-[3-(pyrazin-2-yl)-1,2,4-oxadiazol-5-yl]-octahydrocyclopenta[c]pyrrol-2-yl]-2-chloropropan-1-one] here?
The viability at 48 h, 25 µM was 113%.

Which viability at 48 h, 25 µM does the source give for `CC(Cl)C(=O)N[C@H]1C[C@@H]1c1cnn(-c2ccccc2)c1` (mixture of isomers) [7-M08, rac-2-chloro-N-[(1R,2S)-2-(1-phenyl-1H-pyrazol-4-yl)cyclopropyl]propanamide] here?
Its viability at 48 h, 25 µM is 76.7%.

With `CC(Cl)C(=O)N[C@H]1CN(Cc2ccccc2)C[C@@H]1c1ccccc1` (mixture of isomers) [7-N09, rac-N-[(3R,4S)-1-benzyl-4-phenylpyrrolidin-3-yl]-2-chloropropanamide] as the compound, how does the viability at 48 h, 25 µM read?
The viability at 48 h, 25 µM was 88.2%.

For `COC(=O)[C@H]1[C@@H](C(=O)CCl)C1(C)C` (racemic) [10-A11, rac-methyl (1R,3S)-3-(2-chloroacetyl)-2,2-dimethylcyclopropane-1-carboxylate], which viability at 48 h, 25 µM is on record?
Its viability at 48 h, 25 µM is 74.8%.

Which viability at 48 h, 25 µM does the source give for `CC(C)(C)OC(=O)[C@H]1C[C@@H]1C(=O)CCl` (racemic) [10-C13, rac-tert-butyl (1R,2R)-2-(2-chloroacetyl)cyclopropane-1-carboxylate] here?
Its viability at 48 h, 25 µM is 1.62%.

Which viability at 48 h, 25 µM does the source give for `C=CC(=O)NCC1CCN(S(=O)(=O)C(F)(F)F)CC1` [1-A03, N-[(1-trifluoromethanesulfonylpiperidin-4-yl)methyl]prop-2-enamide] here?
The viability at 48 h, 25 µM was 83.3%.

With `C=CC(=O)Nc1ccoc1C(=O)c1ccc(C)cc1` [1-A04, N-[2-(4-methylbenzoyl)furan-3-yl]prop-2-enamide] as the compound, how does the viability at 48 h, 25 µM read?
The viability at 48 h, 25 µM was 0.123%.

With `C=CC(=O)NC1(c2ncon2)CC1` [1-A05, N-[1-(1,2,4-oxadiazol-3-yl)cyclopropyl]prop-2-enamide] as the compound, how does the viability at 48 h, 25 µM read?
The viability at 48 h, 25 µM was 68.7%.

With `C=CC(=O)NCC1CCC2(CCCC2)O1` (stereo not drawn) [1-A06, N-({1-oxaspiro[4.4]nonan-2-yl}methyl)prop-2-enamide] as the compound, how does the viability at 48 h, 25 µM read?
Its viability at 48 h, 25 µM is 106%.

With `C=CC(=O)NCC1CCN(C2CC2)CC1` [1-A07, N-[(1-cyclopropylpiperidin-4-yl)methyl]prop-2-enamide] as the compound, how does the viability at 48 h, 25 µM read?
The viability at 48 h, 25 µM was 80.2%.

For `C=CC(=O)NC1CCCN(c2cc(N3CCOCC3)ncn2)C1` (stereo not drawn) [1-A08, N-{1-[6-(morpholin-4-yl)pyrimidin-4-yl]piperidin-3-yl}prop-2-enamide], which viability at 48 h, 25 µM is on record?
The viability at 48 h, 25 µM was 103%.

Which viability at 48 h, 25 µM does the source give for `C=CC(=O)N1CC(C(N)=O)Oc2ccccc21` (stereo not drawn) [1-A09, 4-(prop-2-enoyl)-3,4-dihydro-2H-1,4-benzoxazine-2-carboxamide] here?
Its viability at 48 h, 25 µM is 24.7%.

With `C=CC(=O)N(CC)c1cccc(C)c1` [1-A10, N-ethyl-N-(3-methylphenyl)prop-2-enamide] as the compound, how does the viability at 48 h, 25 µM read?
Its viability at 48 h, 25 µM is 76.6%.

With `C=CC(=O)Nc1cnn(CC(F)(F)F)c1` [1-A11, N-[1-(2,2,2-trifluoroethyl)-1H-pyrazol-4-yl]prop-2-enamide] as the compound, how does the viability at 48 h, 25 µM read?
Its viability at 48 h, 25 µM is 91.8%.

Which viability at 48 h, 25 µM does the source give for `C=CC(=O)Nc1cc(C(=O)O)ccc1O` [1-A12, 4-hydroxy-3-(prop-2-enamido)benzoic acid] here?
The viability at 48 h, 25 µM was 75.1%.

Which viability at 48 h, 25 µM does the source give for `C=CC(=O)NCCc1csc(-c2ccccc2)n1` [1-A13, N-[2-(2-phenyl-1,3-thiazol-4-yl)ethyl]prop-2-enamide] here?
Its viability at 48 h, 25 µM is 88.5%.

With `C=CC(=O)NC1CCc2ccccc21` (stereo not drawn) [1-A14, N-(2,3-dihydro-1H-inden-1-yl)prop-2-enamide] as the compound, how does the viability at 48 h, 25 µM read?
The viability at 48 h, 25 µM was 107%.

For `C=CC(=O)Nc1cc(S(=O)(=O)N2CCCCCC2)ccc1OC` [1-A15, N-[5-(azepane-1-sulfonyl)-2-methoxyphenyl]prop-2-enamide], which viability at 48 h, 25 µM is on record?
Its viability at 48 h, 25 µM is 1.58%.

Which viability at 48 h, 25 µM does the source give for `C=CC(=O)Nc1cccc(-c2nnnn2C(C)C)c1` [1-A16, N-{3-[1-(propan-2-yl)-1H-1,2,3,4-tetrazol-5-yl]phenyl}prop-2-enamide] here?
The viability at 48 h, 25 µM was 98.3%.

For `C=CC(=O)NCC1(c2ccccc2Cl)CCCCC1` [1-A17, N-{[1-(2-chlorophenyl)cyclohexyl]methyl}prop-2-enamide], which viability at 48 h, 25 µM is on record?
The viability at 48 h, 25 µM was 64.2%.

With `C=CC(=O)Nc1ccccc1CCC(N)=O` [1-A18, N-[2-(2-carbamoylethyl)phenyl]prop-2-enamide] as the compound, how does the viability at 48 h, 25 µM read?
The viability at 48 h, 25 µM was 125%.

For `C=CC(=O)Nc1ccccc1CCSC` [1-A19, N-{2-[2-(methylsulfanyl)ethyl]phenyl}prop-2-enamide], which viability at 48 h, 25 µM is on record?
Its viability at 48 h, 25 µM is 93.5%.

For `C=CC(=O)NC(C)(Cn1cccn1)C(N)=O` (stereo not drawn) [1-A20, N-{1-carbamoyl-1-[(1H-pyrazol-1-yl)methyl]ethyl}prop-2-enamide], which viability at 48 h, 25 µM is on record?
Its viability at 48 h, 25 µM is 113%.

Which viability at 48 h, 25 µM does the source give for `C=CC(=O)NCc1cc(-c2ccco2)on1` [1-A21, N-{[5-(furan-2-yl)-1,2-oxazol-3-yl]methyl}prop-2-enamide] here?
Its viability at 48 h, 25 µM is 166%.

With `C=CC(=O)N1CCCn2cccc2C12CCOCC2` [1-A22, 1-{2',3',4',5'-tetrahydrospiro[oxane-4,1'-pyrrolo[1,2-a][1,4]diazepin]-2'-yl}prop-2-en-1-one] as the compound, how does the viability at 48 h, 25 µM read?
The viability at 48 h, 25 µM was 109%.

Which viability at 48 h, 25 µM does the source give for `C=CC(=O)NC1CCCN(C(=O)CCC(F)(F)F)C1` (stereo not drawn) [1-B03, N-[1-(4,4,4-trifluorobutanoyl)piperidin-3-yl]prop-2-enamide] here?
The viability at 48 h, 25 µM was 108%.

With `C=CC(=O)N(Cc1ccc(Cl)cc1Cl)CC1CCC(O)C1` (stereo not drawn) [1-B04, N-[(2,4-dichlorophenyl)methyl]-N-[(3-hydroxycyclopentyl)methyl]prop-2-enamide] as the compound, how does the viability at 48 h, 25 µM read?
The viability at 48 h, 25 µM was 26.4%.

Which viability at 48 h, 25 µM does the source give for `C=CC(=O)N(C)Cc1cc(-c2ccccc2)[nH]n1` [1-B05, N-methyl-N-[(5-phenyl-1H-pyrazol-3-yl)methyl]prop-2-enamide] here?
The viability at 48 h, 25 µM was 92.7%.

Which viability at 48 h, 25 µM does the source give for `C=CC(=O)NC1CC2CCC(C1)S2` (stereo not drawn) [1-B06, N-{8-thiabicyclo[3.2.1]octan-3-yl}prop-2-enamide] here?
Its viability at 48 h, 25 µM is 84.7%.

Which viability at 48 h, 25 µM does the source give for `C=CC(=O)NC(Cc1ccccc1)c1ncco1` (stereo not drawn) [1-B07, N-[1-(1,3-oxazol-2-yl)-2-phenylethyl]prop-2-enamide] here?
The viability at 48 h, 25 µM was 118%.

For `C=CC(=O)NC(C)c1cc2cnccc2o1` (stereo not drawn) [1-B08, N-(1-{furo[3,2-c]pyridin-2-yl}ethyl)prop-2-enamide], which viability at 48 h, 25 µM is on record?
Its viability at 48 h, 25 µM is 80.6%.

With `C=CC(=O)N1CCOC(Cn2nc(C)nc2C)C1` (stereo not drawn) [1-B09, 1-{2-[(3,5-dimethyl-1H-1,2,4-triazol-1-yl)methyl]morpholin-4-yl}prop-2-en-1-one] as the compound, how does the viability at 48 h, 25 µM read?
Its viability at 48 h, 25 µM is 161%.

Which viability at 48 h, 25 µM does the source give for `C=CC(=O)N1CCC[C@H]1C(=O)Nc1cccc(C)n1` [1-B10, (2S)-N-(6-methylpyridin-2-yl)-1-(prop-2-enoyl)pyrrolidine-2-carboxamide] here?
Its viability at 48 h, 25 µM is 77.1%.

Which viability at 48 h, 25 µM does the source give for `C=CC(=O)N(Cc1c(C)cccc1C)C1CCc2nc(C)nn2C1` (stereo not drawn) [1-B11, N-[(2,6-dimethylphenyl)methyl]-N-{2-methyl-5H,6H,7H,8H-[1,2,4]triazolo[1,5-a]pyridin-6-yl}prop-2-enamide] here?
Its viability at 48 h, 25 µM is 114%.

Which viability at 48 h, 25 µM does the source give for `C=CC(=O)N(C)C1CCN(c2cnccn2)CC1` [1-B12, N-methyl-N-[1-(pyrazin-2-yl)piperidin-4-yl]prop-2-enamide] here?
Its viability at 48 h, 25 µM is 70.1%.

With `C=CC(=O)NC(c1ccccc1)c1nc(C)no1` (stereo not drawn) [1-B13, N-[(3-methyl-1,2,4-oxadiazol-5-yl)(phenyl)methyl]prop-2-enamide] as the compound, how does the viability at 48 h, 25 µM read?
Its viability at 48 h, 25 µM is 109%.

With `C=CC(=O)Nc1c(OC)nc(Cl)nc1OC` [1-B14, N-(2-chloro-4,6-dimethoxypyrimidin-5-yl)prop-2-enamide] as the compound, how does the viability at 48 h, 25 µM read?
The viability at 48 h, 25 µM was 60.2%.

For `C=CC(=O)N(Cc1sc(C)nc1C)[C@@H](C)[C@H]1COC(C)(C)O1` [1-B15, N-[(1S)-1-[(4S)-2,2-dimethyl-1,3-dioxolan-4-yl]ethyl]-N-[(2,4-dimethyl-1,3-thiazol-5-yl)methyl]prop-2-enamide], which viability at 48 h, 25 µM is on record?
The viability at 48 h, 25 µM was 90%.

Which viability at 48 h, 25 µM does the source give for `C=CC(=O)Nc1nc(Cc2ccccc2)c(C)s1` [1-B16, N-(4-benzyl-5-methyl-1,3-thiazol-2-yl)prop-2-enamide] here?
Its viability at 48 h, 25 µM is 73.2%.

Which viability at 48 h, 25 µM does the source give for `C=CC(=O)N(Cc1ccc(=O)n(C)c1)C1CCCc2ccccc21` (stereo not drawn) [1-B17, N-[(1-methyl-6-oxo-1,6-dihydropyridin-3-yl)methyl]-N-(1,2,3,4-tetrahydronaphthalen-1-yl)prop-2-enamide] here?
The viability at 48 h, 25 µM was 112%.

For `C=CC(=O)N1CCN(Cc2cc(C)no2)CC1` [1-B18, 1-{4-[(3-methyl-1,2-oxazol-5-yl)methyl]piperazin-1-yl}prop-2-en-1-one], which viability at 48 h, 25 µM is on record?
Its viability at 48 h, 25 µM is 70.8%.

For `C=CC(=O)N1CCC(NC(C)=O)C1` (stereo not drawn) [1-B19, N-[1-(prop-2-enoyl)pyrrolidin-3-yl]acetamide], which viability at 48 h, 25 µM is on record?
The viability at 48 h, 25 µM was 114%.

With `C=CC(=O)N1CCNC(=O)C1Cc1nc2ccccc2o1` (stereo not drawn) [1-B20, 3-[(1,3-benzoxazol-2-yl)methyl]-4-(prop-2-enoyl)piperazin-2-one] as the compound, how does the viability at 48 h, 25 µM read?
Its viability at 48 h, 25 µM is 82.9%.

For `C=CC(=O)NC1c2cccc(F)c2CCC1C` (stereo not drawn) [1-B21, N-(5-fluoro-2-methyl-1,2,3,4-tetrahydronaphthalen-1-yl)prop-2-enamide], which viability at 48 h, 25 µM is on record?
Its viability at 48 h, 25 µM is 92.8%.

With `C=CC(=O)NC(Cc1nc(C)no1)c1ccccc1` (stereo not drawn) [1-B22, N-[2-(3-methyl-1,2,4-oxadiazol-5-yl)-1-phenylethyl]prop-2-enamide] as the compound, how does the viability at 48 h, 25 µM read?
Its viability at 48 h, 25 µM is 68.5%.

For `C=CC(=O)NCC1SCCS1` [1-C03, N-[(1,3-dithiolan-2-yl)methyl]prop-2-enamide], which viability at 48 h, 25 µM is on record?
The viability at 48 h, 25 µM was 87.6%.
